In patent publication US7785846B2, “Method for the production of methionine” (Evonik Degussa GmbH, priority 2003, dated 2010):
Values after ≈ are worked out from the molar mass of the structure shown.

Key:
[1] = physchem; conditions: water
[2] = under these conditions (20° C. and 70° C.), compared with water

## CSCC[C@H](N)C(=O)O [methionine]
[1]; 20 °C
  solubility: ~30 mg/mL (≈ 201 mM)
[1]; 70 °C
  solubility: > 90 mg/mL
[2]
  solubility in the fermentation broth: comparable order of magnitude
